The source of these data is patent publication US12522596B2, “Compounds as GLP-1R agonists” (Terns Pharmaceuticals, Inc., priority 2021, dated 2026).

Entries after “also recorded” stand apart in the source; their conditions may differ.

In this assay the test system is C57BL/6 mice expressing human GLP-1R (hGLP-1R). The experiment in a line: Intraperitoneal glucose tolerance test (IPGTT) in hGLP-1R mice. Type of assay: in vivo, mouse. The following applies: IP glucose bolus, relative to vehicle control. As to the method:
The ability of compounds disclosed herein to modify the glucose tolerance of C57BL/6 mice expressing human GLP-1R (hGLP-1R), was evaluated.
The group design used in this study is described in Table 8.
Acclimation and grouping: Following a one-week washout period after in-life completion of the food intake study, mice were utilized to conduct an intraperitoneal Glucose Tolerance Test (IPGTT); mice remained in their treatment groups from study the food intake study. Baseline fasting glucose levels were used to balance treatment groups (final n=7 per treatment group); outlier mice (n=3), based on abnormal fasting blood glucose and body weight, were used for PK assessment.
Intraperitoneal Glucose Tolerance Test (IPGTT): The mice were placed clean cages with sawdust bedding and fasted overnight. Basal fasting glucose was measured by tail vein nick before dosing in the morning, 3 mice per group of abnormal fasting blood glucose and body weight were used for PK assessment. […] Blood glucose levels were measured at 0 (pre-dose), 15-, 30-, 60-, and 120-min post glucose dosing. […]
Data Processing and analysis: Manual data were transferred into an excel spreadsheet. All values are expressed as mean±S.E.M. The significances of the differences among groups and within groups were evaluated by one-way or two-way ANOVA using Graph Pad statistic software. […]

`N#Cc1ccc(COc2cccc(C3CCN(Cc4nc5ccc(C(=O)O)cc5n4Cc4cncs4)CC3)n2)c(F)c1` [Compound 2]: the glucose tolerance result is given as “significantly enhanced the glucose tolerance; also recorded: improved”.
